Test results as given in ChEMBL document CHEMBL4007425, “Drug Repurposing of Histone Deacetylase Inhibitors That Alleviate Neutrophilic Inflammation in Acute Lung Injury and Idiopathic Pulmonary Fibrosis via Inhibiting Leukotriene A4 Hydrolase and Blocking LTB4 Biosynthesis” (J Med Chem, 2017).
Active and inactive are the calls of the source. The rule behind the calls is not given here.

Legend:
[1] = system: Mus musculus; assay: Protection against BLM-induced lung fibrosis in C57BL/6 mouse assessed as TGF-beta1 level at 25 mg/kg, ip qd for 7 days post BLM challenge measured on day 14 by ELISA (reference value: 99.30 pg/ml); type: functional
[2] = system: Mus musculus; assay: Anti-inflammatory activity in BLM-induced C57BL/6 mouse model of acute lung neutrophilic inflammation assessed as protein concentration in BALF at 25 mg/kg, ip qd for 7 days post BLM challenge measured on day 7 (reference value: 2.39 mg/ml); type: functional
[3] = system: Mus musculus; assay: Anti-inflammatory activity in BLM-induced C57BL/6 mouse model of acute lung neutrophilic inflammation assessed as LTB4 level at 25 mg/kg, ip qd for 7 days post BLM challenge measured on day 7 (reference value: 139.23 pg/ml); type: functional
[4] = system: Mus musculus; assay: Anti-inflammatory activity in BLM-induced C57BL/6 mouse model of acute lung injury assessed as reduction in IL-1beta level in BALF at 10 and 25 mg/kg, ip qd for 7 days post BLM challenge measured on day 7 by ELISA; type: functional, organism-based
[5] = system: Mus musculus; assay: Anti-inflammatory activity in BLM-induced C57BL/6 mouse model of acute lung injury assessed as reduction in IL-6 level in BALF at 10 and 25 mg/kg, ip qd for 7 days post BLM challenge measured on day 7 by ELISA; type: functional, organism-based
[6] = system: Mus musculus; assay: Anti-inflammatory activity in BLM-induced C57BL/6 mouse model of acute lung neutrophilic inflammation assessed as reduction in macrophage number in BALF at 10 and 25 mg/kg, ip qd for 7 days post BLM challenge measured on day 7; type: functional, organism-based
[7] = system: Mus musculus; assay: Protection against BLM-induced lung fibrosis in C57BL/6 mouse assessed as TGF-beta1 level at 25 mg/kg, ip qd for 7 days post BLM challenge measured on day 7 by ELISA (reference value: 75.39 pg/ml); type: functional
[8] = system: Mus musculus; assay: Anti-inflammatory activity in BLM-induced C57BL/6 mouse model of acute lung neutrophilic inflammation assessed as MPO activity at 25 mg/kg, ip qd for 7 days post BLM challenge measured on day 7 (reference value: 0.98 U/g); type: functional
[9] = system: Mus musculus; assay: Anti-inflammatory activity in LPS-induced C57BL/6 mouse model of acute lung injury assessed as reduction in alveolar vascular permeability at 10 to 50 mg/kg, ip pretreated for 1 hr followed LPS challenge measured after 24 hrs by Evans blue dye based microscopy; type: functional, organism-based
[10] = system: Mus musculus; assay: Anti-inflammatory activity in LPS-induced C57BL/6 mouse model of acute lung injury assessed as reduction in TNFalpha level pretreated intraperitoneally for 1 hr followed LPS challenge after 24 hrs by ELISA; type: functional
[11] = system: Mus musculus; assay: Anti-inflammatory activity in LPS-induced C57BL/6 mouse model of acute lung injury assessed as reduction in IL-1beta level pretreated intraperitoneally for 1 hr followed LPS challenge after 24 hrs by ELISA; type: functional
[12] = system: Mus musculus; assay: Anti-inflammatory activity in LPS-induced C57BL/6 mouse model of acute lung injury assessed as reduction in IL-1beta mRNA level pretreated intraperitoneally for 1 hr followed LPS challenge after 24 hrs by qRT-PCR method; type: functional
[13] = system: Mus musculus; assay: Anti-inflammatory activity in BLM-induced C57BL/6 mouse model of acute lung neutrophilic inflammation assessed as protein concentration in BALF at 50 mg/kg, ip qd for 7 days post BLM challenge measured on day 7 (reference value: 2.39 mg/ml); type: functional
[14] = system: Mus musculus; assay: Anti-inflammatory activity in LPS-induced C57BL/6 mouse model of acute lung injury assessed as reduction in lung lesions at 10 to 50 mg/kg, ip pretreated for 1 hr followed LPS challenge measured after 24 hrs by hematoxylin and eosin staining based microscopy; type: functional, organism-based
[15] = system: Mus musculus; assay: Anti-inflammatory activity in BLM-induced C57BL/6 mouse model of acute lung neutrophilic inflammation assessed as reduction in macrophage number in BALF at 25 and 50 mg/kg, ip qd for 7 days post BLM challenge measured on day 7; type: functional, organism-based
[16] = system: Mus musculus; assay: Anti-inflammatory activity in LPS-induced C57BL/6 mouse model of acute lung injury assessed as reduction in neutrophil infiltration by measuring MPO activity at 10 to 50 mg/kg, ip pretreated for 1 hr followed LPS challenge measured after 24 hrs; type: functional, organism-based
[17] = system: Mus musculus; assay: Anti-inflammatory activity in BLM-induced C57BL/6 mouse model of acute lung injury assessed as reduction in IL-6 level in BALF at 25 and 50 mg/kg, ip qd for 7 days post BLM challenge measured on day 7 by ELISA; type: functional, organism-based
[18] = system: Mus musculus; assay: Protection against BLM-induced lung fibrosis in C57BL/6 mouse assessed as TGF-beta1 level at 25 and 50 mg/kg, ip qd for 7 days post BLM challenge measured on day 7 by qRT-PCR method; type: functional, organism-based
[19] = system: Mus musculus; assay: Anti-inflammatory activity in BLM-induced C57BL/6 mouse model of acute lung neutrophilic inflammation assessed as reduction in total cell number in BALF at 25 and 50 mg/kg, ip qd for 7 days post BLM challenge measured on day 7; type: functional, organism-based
[20] = system: Mus musculus; assay: Anti-inflammatory activity in BLM-induced C57BL/6 mouse model of acute lung injury assessed as reduction in IL-1beta level in BALF at 25 and 50 mg/kg, ip qd for 7 days post BLM challenge measured on day 7 by ELISA; type: functional, organism-based
[21] = system: Mus musculus; assay: Anti-inflammatory activity in LPS-induced C57BL/6 mouse model of acute lung injury assessed as reduction in protein concentration in BALF at 10 to 50 mg/kg, ip pretreated for 1 hr followed LPS challenge measured after 24 hrs; type: functional, organism-based
[22] = system: Mus musculus; assay: Protection against BLM-induced lung fibrosis in C57BL/6 mouse assessed as TGF-beta1 level at 50 mg/kg, ip qd for 7 days post BLM challenge measured on day 7 by ELISA (reference value: 75.39 pg/ml); type: functional
[23] = system: Mus musculus; assay: Anti-inflammatory activity in BLM-induced C57BL/6 mouse model of acute lung neutrophilic inflammation assessed as reduction neutrophil count at 25 mg/kg, ip qd for 7 days post BLM challenge measured on day 7; type: functional, organism-based
[24] = system: Mus musculus; assay: Protection against BLM-induced lung fibrosis in C57BL/6 mouse assessed as TGF-beta1 level at 50 mg/kg, ip qd for 7 days post BLM challenge measured on day 14 by ELISA (reference value: 99.30 pg/ml); type: functional
[25] = system: Mus musculus; assay: Anti-inflammatory activity in LPS-induced C57BL/6 mouse model of acute lung injury assessed as reduction in TNFalpha mRNA level pretreated intraperitoneally for 1 hr followed LPS challenge after 24 hrs by qRT-PCR method; type: functional
[26] = system: Mus musculus; assay: Anti-inflammatory activity in LPS-induced C57BL/6 mouse model of acute lung injury assessed as reduction in hyperemia of pulmonary alveolar septa at 10 to 50 mg/kg, ip pretreated for 1 hr followed LPS challenge measured after 24 hrs by hematoxylin and eosin staining based microscopy; type: functional, organism-based
[27] = system: Mus musculus; assay: Anti-inflammatory activity in BLM-induced C57BL/6 mouse model of acute lung neutrophilic inflammation assessed as reduction in number of neutrophils in BALF at 25 and 50 mg/kg, ip qd for 7 days post BLM challenge measured on day 7; type: functional, organism-based

SMILES: CN(C)c1ccc(C(=O)NCCCCCCC(=O)NO)cc1
- Activity [1]: 38.22 pg/mL
- Activity [2]: 1.92 mg/mL
- Activity [3]: 37.23 pg/mL
- Activity [4]: Active
- Activity [5]: Active
- Activity [6]: Active
- Activity [7]: 31.74 pg/mL
- Activity [8]: 0.56 U/g

SMILES: O=C(CCCCCCC(=O)Nc1ccccc1)NO [VORINOSTAT]
- Activity [9]: Active
- Activity [10]: Dose-dependent effect
- Activity [11]: Dose-dependent effect
- Activity [12]: Dose-dependent effect
- Activity [13]: 1.79 mg/mL
- Activity [14]: Active
- Activity [15]: Active
- Activity [16]: Active
- Activity [17]: Active
- Activity [18]: Active
- Activity [19]: Active
- Activity [20]: Active
- Activity [21]: Active
- Activity [22]: 34.09 pg/mL
- Activity [23]: Active
- Activity [24]: 49.74 pg/mL
- Activity [25]: Dose-dependent effect
- Activity [26]: Active
- Activity [27]: Active
